According to ChEMBL document CHEMBL3046519, “Synthesis and biological evaluation of some pyrazole derivatives as anti-inflammatoryantibacterial agents” (2012):
≈ marks a conversion by molar mass, not a printed value. Calls of active or inactive are those of the source. No cut-off for these calls is given here.

Assays:
[1] = system: Bacillus subtilis; assay: Antibacterial activity against Bacillus subtilis MTCC 121 by NCCLS broth macrodilution method; format: functional
[2] = system: Staphylococcus aureus; assay: Antibacterial activity against Staphylococcus aureus MTCC 96 by NCCLS broth macrodilution method; format: functional
[3] = system: Escherichia coli; assay: Antibacterial activity against Escherichia coli MTCC 1652 at 4 mg/ml after 24 hr by agar well diffusion method; format: functional, organism-based
[4] = system: Bacillus subtilis; assay: Antibacterial activity against Bacillus subtilis MTCC 121 at 4 mg/ml after 24 hr by agar well diffusion method; format: functional; conditions: MTCC 121, 24 h, read-out: DIZ
[5] = system: Staphylococcus aureus; assay: Antibacterial activity against Staphylococcus aureus MTCC 96 at 4 mg/ml after 24 hr by agar well diffusion method; format: functional; conditions: MTCC 96, 24 h, read-out: DIZ
[6] = system: Rattus norvegicus; assay: Anti-inflammatory activity in Rattus norvegicus Wistar albino (rat) assessed as inhibition of carrageenan-induced paw edema at 50 mg/kg, po administered for 30 min prior to carrageenan challenge measured at 4 hr relative to control; format: functional
[7] = system: Rattus norvegicus; assay: Anti-inflammatory activity in Rattus norvegicus Wistar albino (rat) assessed as inhibition of carrageenan-induced paw edema at 50 mg/kg, po administered for 30 min prior to carrageenan challenge measured at 3 hr relative to control; format: functional
[8] = system: Rattus norvegicus; assay: Anti-inflammatory activity in Rattus norvegicus Wistar albino (rat) assessed as inhibition of carrageenan-induced paw edema at 50 mg/kg, po administered for 30 min prior to carrageenan challenge measured at 2 hr relative to control; format: functional
[9] = system: Rattus norvegicus; assay: Anti-inflammatory activity in Rattus norvegicus Wistar albino (rat) assessed as inhibition of carrageenan-induced paw edema at 50 mg/kg, po administered for 30 min prior to carrageenan challenge measured at 1 hr relative to control; format: functional
[10] = system: Pseudomonas aeruginosa; conditions: MTCC 741, 4 mg/ml
Description: Antibacterial activity against Pseudomonas aeruginosa MTCC 741 at 4 mg/ml after 24 hr by agar well diffusion method

SMILES | MIC [1] | MIC [2] | diameter of the inhibition zone (DIZ) [3] | zone of inhibition at 4000 µg/mL [4] | zone of inhibition at 4000 µg/mL [5] | inhibition in vivo at 50 mg/kg [6] | inhibition in vivo at 50 mg/kg [7] | inhibition in vivo at 50 mg/kg [8] | inhibition in vivo at 50 mg/kg [9] | DIZ [10]
NS(=O)(=O)c1ccc(-n2cc(/C=N/Nc3nc(-c4ccccc4)cs3)c(-c3ccc(F)cc3)n2)cc1 | > 128 µg/mL | > 128 µg/mL | inactive | 16.6 mm | 14.6 mm | 56% | 65% | 60% | 11% | inactive
NS(=O)(=O)c1ccc(-n2cc(/C=N/Nc3nc(-c4ccc(Cl)cc4)cs3)c(-c3ccccc3)n2)cc1 | > 128 µg/mL | > 128 µg/mL | inactive | 15.3 mm | 13.6 mm | 70% | 75% | 72% | 32% | inactive
Cc1ccc(-c2nn(-c3ccc(S(N)(=O)=O)cc3)cc2/C=N/NC(N)=S)cc1 | > 128 µg/mL | > 128 µg/mL | inactive | 14.3 mm | 16.3 mm | 70% | 75% | 72% | 32% | inactive
NC(=S)N/N=C/c1cn(-c2ccc(S(N)(=O)=O)cc2)nc1-c1ccc(F)cc1 | > 128 µg/mL | > 128 µg/mL | inactive | 15.3 mm | 15.6 mm | 75% | 73% | 75% | 24% | inactive
COc1ccc(-c2nn(-c3ccc(S(N)(=O)=O)cc3)cc2/C=N/Nc2nc(-c3ccccc3)cs2)cc1 | > 128 µg/mL | > 128 µg/mL | inactive | 15.6 mm | 15.3 mm | 61% | 61% | 65% | 32% | inactive
Cc1ccc(-c2csc(N/N=C/c3cn(-c4ccc(S(N)(=O)=O)cc4)nc3-c3ccccc3)n2)cc1 | > 128 µg/mL | > 128 µg/mL | inactive | 14.6 mm | 15 mm | 60% | 57% | 65% | 28% | inactive
Cc1ccc(-c2nn(-c3ccc(S(N)(=O)=O)cc3)cc2/C=N/Nc2nc(-c3ccccc3)cs2)cc1 | > 128 µg/mL | > 128 µg/mL | inactive | 13.6 mm | 15.3 mm | 56% | 75% | 60% | 33% | inactive
NS(=O)(=O)c1ccc(-n2cc(/C=N/Nc3nc(-c4ccccc4)cs3)c(-c3ccccc3)n2)cc1 | > 128 µg/mL | > 128 µg/mL | inactive | 14.6 mm | 14.3 mm | 72% | 69% | 71% | 33% | inactive
COc1ccc(-c2nn(-c3ccc(S(N)(=O)=O)cc3)cc2/C=N/Nc2nc(-c3ccc(Cl)cc3)cs2)cc1 | > 128 µg/mL | > 128 µg/mL | inactive | 14.3 mm | 13.6 mm | 71% | 69% | 66% | 32% | inactive
Cc1ccc(-c2csc(N/N=C/c3cn(-c4ccc(S(N)(=O)=O)cc4)nc3-c3ccc(F)cc3)n2)cc1 | > 128 µg/mL | > 128 µg/mL | inactive | 14.3 mm | 15.6 mm | 70% | 73% | 72% | 33% | inactive
Cc1ccc(-c2nn(-c3ccc(S(N)(=O)=O)cc3)cc2/C=N/Nc2nc(-c3ccc(Cl)cc3)cs2)cc1 | > 128 µg/mL | > 128 µg/mL | inactive | 15.3 mm | 14.6 mm | 57% | 60% | 60% | 32% | inactive
Cc1ccc(-c2csc(N/N=C/c3cn(-c4ccc(S(N)(=O)=O)cc4)nc3-c3ccc(C)cc3)n2)cc1 | > 128 µg/mL | > 128 µg/mL | inactive | 14 mm | 13.6 mm | 61% | 75% | 72% | 24% | inactive
NS(=O)(=O)c1ccc(-n2cc(/C=N/Nc3nc(-c4ccc(Cl)cc4)cs3)c(-c3ccc(Cl)cc3)n2)cc1 | > 128 µg/mL | > 128 µg/mL | inactive | 15 mm | 14.6 mm | 58% | 73% | 67% | 28% | inactive
NC(=S)N/N=C/c1cn(-c2ccc(S(N)(=O)=O)cc2)nc1-c1ccc(Cl)cc1 | > 128 µg/mL | > 128 µg/mL | inactive | 13.6 mm | 14 mm | 71% | 77% | 76% | 33% | inactive
NS(=O)(=O)c1ccc(-n2cc(/C=N/Nc3nc(-c4ccc(Cl)cc4)cs3)c(-c3ccc(F)cc3)n2)cc1 | > 128 µg/mL | > 128 µg/mL | inactive | 13.3 mm | 14.3 mm | 75% | 73% | 29% | 35% | inactive
NC(=S)N/N=C/c1cn(-c2ccc(S(N)(=O)=O)cc2)nc1-c1ccccc1 | 64 µg/mL (≈ 160 µM) | 128 µg/mL (≈ 320 µM) | inactive | 19.6 mm | 17 mm | 63% | 67% | 59% | 35% | inactive
COc1ccc(-c2nn(-c3ccc(S(N)(=O)=O)cc3)cc2/C=N/NC(N)=S)cc1 | > 128 µg/mL | > 128 µg/mL | inactive | 15 mm | 13.6 mm | 71% | 59% | 76% | 28% | inactive
NS(=O)(=O)c1ccc(-n2cc(/C=N/Nc3nc(-c4ccccc4)cs3)c(-c3ccc(Cl)cc3)n2)cc1 | > 128 µg/mL | > 128 µg/mL | inactive | 15.6 mm | 13.3 mm | 56% | 57% | 62% | 22% | inactive
Cc1ccc(-c2csc(N/N=C/c3cn(-c4ccc(S(N)(=O)=O)cc4)nc3-c3ccc(Cl)cc3)n2)cc1 | > 128 µg/mL | > 128 µg/mL | inactive | 14.6 mm | 15.3 mm | 73% | 70% | 61% | 5% | inactive
COc1ccc(-c2nn(-c3ccc(S(N)(=O)=O)cc3)cc2/C=N/Nc2nc(-c3ccc(C)cc3)cs2)cc1 | 128 µg/mL (≈ 235 µM) | 64 µg/mL (≈ 118 µM) | inactive | 17.3 mm | 20.6 mm | 70% | 72% | 65% | 37% | inactive
